{"source": "patent US9329184B2", "about": "“Fluorescent probe” (THE UNIVERSITY OF TOKYO, priority 2011, dated 2016)", "key": {"[1]": {"assay": "Absorption and fluorescence spectra and pH profiles in sodium phosphate buffer", "format": "physicochemical", "conditions": "for pH-dependent change of absorbance / λabs / λfl: 0.1 M sodium phosphate buffer containing 1% DMSO; for pH-dependent change of absorbance: pH profile; for λabs / λfl: Table 1", "experimental": "(§1) Fluorescence was measured with an excitation wavelength of 593 nm.\nFluorescence was measured with an excitation wavelength of 505 nm.\nFluorescence was measured with an excitation wavelength of 590 nm.\nAbsorption and fluorescence spectra as well as pH profiles of 2-Me SiR600 and the acetylated compound thereof (N-Ac-2-Me SiR600) synthesized in Example 2 were measured. […] Therefore, 2-Me SiR600 in which the amino group at the 3-position is acylated can be functioned as a fluorescent probe for detecting enzymatic activity on the basis of absorption wavelength change with a high S/N ratio, without using the intramolecular photoinduced electron transfer.\nIn a similar manner, absorption and fluorescence spectra as well as pH profiles of 2-COOH SiR600 and the acetylated compound thereof were measured. […] Therefore, it can be used as a fluorescent probe as shown in the following scheme.\nAbsorption spectrum of Z-DEVD-SiR600 was measured in a 0.1 M sodium phosphate buffer of pH 3 to 10 containing 1% DMSO. The measurement results are shown in FIG. 5, and the photochemical characteristics are shown in Table 3 mentioned below together with the results for SiR600."}, "caspase-3": {"test_system": "caspase-3", "assay": "Reaction of fluorescent probe with caspase-3 (absorption/fluorescence before and after)", "format": "biochemical", "conditions": "for absorption maximum wavelength: 20 mM HEPES buffer pH 7.4, 37° C., before/after reaction with caspase-3", "experimental": "as §1\nFunction of Z-DEVD-SiR600 as a fluorescent probe was evaluated by reacting it with caspase-3. Caspase-3 (0.5 μg) was added to Z-DEVD-SiR600 (2 μM), and the mixture was reacted for 10 hours. The reaction was performed at 37° C. in a 20 mM HEPES buffer (pH 7.4, 0.75 ml) containing 100 μM dithiothreitol (DTT), 10% glycerol, 0.1% CHAPS, 100 mM NaCl, and 0.1% DMSO. The absorption spectra and fluorescence spectra observed before and after the reaction (excitation wavelengths are shown in FIG. 6, (b) and (c), respectively, and the kinetics parameters of the reaction are shown in FIG. 6, (d))."}, "leucine aminopeptidase": {"test_system": "leucine aminopeptidase", "assay": "Reaction of fluorescent probe with leucine aminopeptidase (absorption/fluorescence before and after)", "format": "biochemical", "conditions": "for absorption maximum wavelength: 0.1 M sodium phosphate buffer pH 7.4, 37° C., before/after reaction with leucine aminopeptidase", "experimental": "as §1\nFunction of Leu-SiR600 as a fluorescent probe was evaluated by reacting it with leucine aminopeptidase. Leucine aminopeptidase (0.096 unit) was added to Leu-SiR600 (6 μM), and the mixture was reacted for 2.5 hours. The reaction performed at 37° C. in a 0.1 M sodium phosphate buffer (pH 7.4, 0.75 ml) containing 0.8% DMSO. The absorption spectra and fluorescence spectra observed before and after the reaction are shown in FIG. 7, (b) and (c), respectively."}}, "data": [{"compound": "CC(=O)Nc1ccc2c(c1)[Si](C)(C)c1cc(N)ccc1C21OC(=O)c2ccccc21", "note": "(stereo not drawn) [N-Acetyl-2-COOH SiR600]", "values": [{"measurement": "absorption for the visible region", "setting": "[1]; physiological pH range", "result": "not to show absorption for the visible region in the physiological pH range"}]}, {"compound": "Cc1ccccc1C1=C2C=CC(=N)C=C2[Si](C)(C)c2cc(N)ccc21", "note": "[2-Me SiR600]", "values": [{"measurement": "pH-dependent change of absorbance", "setting": "[1]", "result": "did not substantially show pH-dependent change of absorbance"}, {"measurement": "maximum absorption wavelength", "setting": "[1]; Example 4", "result": 593, "unit": "nm"}, {"measurement": "λabs", "setting": "[1]", "result": 593, "unit": "nm"}, {"measurement": "λfl", "setting": "[1]", "result": 613, "unit": "nm"}, {"measurement": "ΦFL", "setting": "[1]; Table 3, pH 7.4", "result": 0.38}, {"measurement": "ε", "setting": "[1]; Table 3, pH 7.4", "result": 91000, "unit": "M⁻¹ cm⁻¹"}, {"measurement": "λem", "setting": "[1]; Table 3, pH 7.4", "result": 613, "unit": "nm"}, {"measurement": "λex", "setting": "[1]; Table 3, pH 7.4", "result": 593, "unit": "nm"}, {"measurement": "absorption maximum wavelength", "setting": "caspase-3", "result": 593, "unit": "nm"}, {"measurement": "absorption maximum wavelength", "setting": "leucine aminopeptidase", "result": 593, "unit": "nm"}]}, {"compound": "Cc1ccccc1C1=C2C=CC(=N)C=C2[Si](C)(C)c2cc(NC(=O)[C@H](N)CC(C)C)ccc21", "note": "[Leu-SiR600]", "values": [{"measurement": "absorption maximum wavelength", "setting": "leucine aminopeptidase", "result": "around 500 nm"}, {"measurement": "fluorescence before and after the reaction with leucine aminopeptidase", "setting": "leucine aminopeptidase; probe 6 μM, leucine aminopeptidase 0.096 unit, 2.5 hours, 37° C., excitation light 593 nm", "result": "scarcely observed before the reaction, but extremely strong fluorescence is observed after the reaction"}]}, {"compound": "CC(=O)Nc1ccc2c(c1)[Si](C)(C)C1=CC(=N)C=CC1=C2c1ccccc1C", "note": "[N-Ac-2-Me SiR600, N-Acetyl-2-Me SiR600]", "values": [{"measurement": "pH-dependent change of absorbance", "setting": "[1]", "result": "decreased with decrease of pH"}, {"measurement": "λabs", "setting": "[1]", "result": 505, "unit": "nm"}, {"measurement": "λfl", "setting": "[1]", "result": 600, "unit": "nm"}, {"measurement": "shift of maximum absorption wavelength compared with 2-Me SiR600", "setting": "[1]; acetylation of the amino group at the 3-position", "result": "significantly shifted to the shorter wavelength side"}]}, {"compound": "C[Si]1(C)c2cc(N)ccc2C2(OC(=O)c3ccccc32)c2ccc(N)cc21", "note": "[2-COOH SiR600]", "values": [{"measurement": "pH-dependent change of absorbance", "setting": "[1]", "result": "did not substantially show absorbance change at pH higher than the physiological pH region"}, {"measurement": "ΦFL", "setting": "[1]; Table 2, pH 7.4", "result": 0.26}, {"measurement": "ε", "setting": "[1]; Table 2, pH 7.4", "result": 4000, "unit": "M⁻¹ cm⁻¹"}, {"measurement": "λem", "setting": "[1]; Table 2, pH 7.4", "result": 610, "unit": "nm"}, {"measurement": "λex", "setting": "[1]; Table 2, pH 7.4", "result": 590, "unit": "nm"}]}, {"compound": "Z-DEVD-SiR600", "values": [{"measurement": "pH-dependent change of absorbance", "setting": "[1]", "result": "showed pH-dependent absorbance change"}, {"measurement": "ΦFL", "setting": "[1]; Table 3, pH 3.0", "result": 0.19}, {"measurement": "ε", "setting": "[1]; Table 3, pH 3.0", "result": 85000, "unit": "M⁻¹ cm⁻¹"}, {"measurement": "λem", "setting": "[1]; Table 3, pH 3.0", "result": 600, "unit": "nm"}, {"measurement": "λex", "setting": "[1]; Table 3, pH 3.0", "result": 500, "unit": "nm"}, {"measurement": "absorption of light around 593 nm", "setting": "[1]; around the maximum absorption wavelength of SiR600", "result": "did not absorb light around the maximum absorption wavelength (593 nm) of SiR600"}, {"measurement": "absorption maximum wavelength", "setting": "caspase-3", "result": "around 500 nm"}, {"measurement": "fluorescence before and after the reaction with caspase-3", "setting": "caspase-3; probe 2 μM, caspase-3 0.5 μg, 10 hours, 37° C., excitation light 593 nm", "result": "scarcely observed before the reaction, but extremely strong fluorescence is observed after the reaction"}]}]}
